Results: US11666559B2, “Spiro-lactam compounds, process and uses thereof” (UNIVERSIDADE DE COIMBRA, priority 2017, dated 2023)
Like-named read-outs stand apart in the source and are kept apart here.

Key:
HIV-1 = conditions: for IC50 / IC90: TZM-bl cells
Protocol: (§1) In an embodiment, TZM-bl cells (AIDS Research and Reference Reagent Program, National Institutes of Health, USA) were cultured in complete growth medium that consists of Dulbecco's minimal essential medium (DMEM) supplemented with 10% fetal bovine serum (FBS), 100 U/ml of penicillin-streptomycin (Gibco/Invitrogen, USA), 1 mM of sodium pyruvate (Gibco/Invitrogen, USA), 2 mM of L-glutamine (Gibco/Invitrogen, USA) and 1 mM of non-essential amino acids (Gibco/Invitrogen, USA).
(§2) In an embodiment, the primary isolates 93AOHDC249, 93AOHDC250, 01PTHDECJN and 03PTHCC9, used in this study were previously isolated, titrated and characterized for co-receptor usage. HIV reference strain SG3.1 was obtained by transfection of HEK293T cells with pSG3.1 (HIV-1) plasmid using Fugene 6 reagent (Roche, Switzerland) according to manufacturer's instructions.
(§3) In an embodiment, the 50% tissue culture infectious dose (TCID50) of the virus was determined in a single-round viral infectivity assay using a luciferase reporter gene assay in TZM-bl cells and calculated using the statistical method of Reed and Muench^27.
(§4) In an embodiment, the antiviral activity of the compounds was determined in a single-round assay with TZM-bl cells as previously described ^26. Cells were infected with 200 TCID50 of virus in the presence of serial fold dilutions of the BSS compounds in GM, supplemented with DEAE-dextran (19.7 μg/ml). After 48 h of infection, luciferase expression was quantified with the One-Glow luciferase assay substrate reagent (Promega, USA) according to manufacturer's instructions. Briefly, a volume of reagent equal to that of the culture medium in each well was added. For 96-well plates, typically 100 μl of reagent is added to the cells grown in 100 μl of medium. After an incubation of 3 minutes at room temperature to allow complete cell lysis luminescence was measured in Tecan Infinite M200. Background luminescence was measured by using control wells that contained only target cells and GM. Maraviroc (CCR5 antagonist), T1249 (fusion inhibitor) and AMD3100 (CXCR4 antagonist) were used as positive controls of the antiviral activity. At least two independent experiments were performed for each analysis and each assay was set up in triplicate wells.
(§5) In an embodiment, dose-response curves were estimated from the percentage of inhibition of infection (y-axis) against logo of concentration of each compound (x-axis) using the sigmoidal dose-response equation (variable slope) in GraphPad Prism version 5.00 for Windows (GraphPad Software, San Diego Calif. USA, www.graphpad.com). IC50 and IC90 values were determined from this curve. IC50 and IC90 values correspond to the concentration of compound that inhibits viral replication in 50% and 90%, respectively.

HIV-2 = system: HIV-2
Protocol: as §1, §2, §3, §4, §5

[1] = system: Enterococcus faecalis ATCC 29212; assay: Anti-bacterial activity, agar diffusion method; format: cell-based; conditions: at the concentration of 1 mg/ml
Protocol: (§6) In an embodiment, anti-bacterial activity of the compounds now disclosed was determined according to CLSI guidelines. The following bacteria were used: reference strains E. coli ATCC 10536, Staphylococcus aureus ATCC 6538, Bacillus subtilis ATCC 6633 and Enterococcus faecalis ATCC 29212; clinical strains of E. coli and Pseudomonas aeruginosa isolated in our laboratory; and strains of Lactobacillus rhamnosus and Lactobacillus plantarum also isolated in our laboratory. The Minimum Inhibitory Concentration (MIC) was determined by the agar diffusion method, in plates of Mueller-Hinton agar or Rogosa agar (for Lactobacilli). Briefly, 10^8 cfu/ml bacterial suspensions were prepared in sterile water and spread in the culture media. Sterile disks containing different concentrations of P3 were placed on the inoculated surface. Plates were incubated at 37° C. for 24 h or 48 h. Lactobacilli were incubated at microaerophilic conditions. A negative control made of sterile water was used. Disks of amoxicillin and imipenem were used as positive controls.

[2] = system: Escherichia coli (Clinical strain); assay: Anti-bacterial activity, agar diffusion method; format: cell-based; conditions: at the concentration of 1 mg/ml
Protocol: as §6

[3] = system: Escherichia coli ATCC 10536; assay: Anti-bacterial activity, agar diffusion method; format: cell-based; conditions: at the concentration of 1 mg/ml
Protocol: as §6

Lactobacillus plantarum = assay: Anti-bacterial activity, agar diffusion method; format: cell-based; conditions: at the concentration of 1 mg/ml
Protocol: as §6

Lactobacillus rhamnosus = assay: Anti-bacterial activity, agar diffusion method; format: cell-based; conditions: at the concentration of 1 mg/ml
Protocol: as §6

[4] = system: Pseudomonas aeruginosa (Clinical strain); assay: Anti-bacterial activity, agar diffusion method; format: cell-based; conditions: at the concentration of 1 mg/ml
Protocol: as §6

[5] = system: Staphylococcus aureus ATCC 6538; assay: Anti-bacterial activity, agar diffusion method; format: cell-based; conditions: at the concentration of 1 mg/ml
Protocol: as §6

[6] = 93AOHDC249, CCR5 tropic HIV-1 primary isolate
[7] = 93AOHDC250, HIV-1 primary isolate
[8] = SG3.1, CXCR4 tropic HIV-1 adapted isolate
[9] = 03PTHCC19, CCR5 tropic HIV-2 isolate, TZM-bl cells, wa = without antiviral activity
[10] = 03PTHCC19, CCR5 tropic HIV-2 isolate, wa = without antiviral activity
[11] = HIV-2 primary isolate 00PTHCC20, X4, resistant to ABC, ZDV, d4T, ddl, LPV
[12] = HIV-2 primary isolate 00PTHDECT, R5/X4, resistant to DTG
[13] = HIV-2 primary isolate 03PTHCC20, X4, resistant to ABC, ZDV, d4T, ddl, LPV
[14] = HIV-2 primary isolate 03PTHSM9, X4, resistant to SQV, LPV, DRV and TAF
[15] = HIV-2 primary isolate 10PTHSJIG, R5, resistant to RAL, DTG, LPV, SQV, DRV and all NRTIs
[16] = HIV-2 primary isolate 15PTHCEC, X4, resistant to RAL, DTG, LPV, SQV, DRV, ABC, ddl, TDF, TAF, 3TC, d4T and FTC
[17] = HIV-2 primary isolate 15PTHSJIG, R5, resistant to RAL, DTG, 3TC and FTC
[18] = Table 3, HIV-2 isolate 03PTHCC19, R5, sensitive (control isolate), TZM-bl cells
[19] = 01PTHDECJN, CCR5 tropic HIV-1 primary isolate

Structure (SMILES): CC1(C)S[C@H]2N(C(=O)[C@]23CC=C(C(=O)OCc2ccccc2)[C@@H]3C(=O)c2ccccc2)[C@H]1C(=O)OC(c1ccccc1)c1ccccc1 [BSS-730A]
- anti-HIV activity against HIV-1 (in words) (HIV-1): potent activity
- MPI (maximum percentage of inhibition) (HIV-1; [6]): 99%
- TI (in vitro therapeutic index, CC50/IC50) (HIV-1; [6]): 2946.32
- IC50 (HIV-1; [6]): 26 nM
- IC90 (HIV-1; [6]): 118 nM
- MPI (maximum percentage of inhibition) (HIV-1; [7]): 94%
- TI (in vitro therapeutic index, CC50/IC50) (HIV-1; [7]): 20247.69
- IC50 (HIV-1; [7]): 4 nM
- IC90 (HIV-1; [7]): 19.7 nM
- inhibition (HIV-1; HIV-1, concentration of 15.21 μM): about 100%
- MPI (maximum percentage of inhibition) (HIV-1; [8]): 99%
- TI (in vitro therapeutic index, CC50/IC50) (HIV-1; [8]): 5584.30
- IC50 (HIV-1; [8]): 14 nM
- IC90 (HIV-1; [8]): 25.2 nM
- anti-HIV activity against HIV-2 (in words) (HIV-2): potent activity
- TI (in vitro therapeutic index, CC50/IC50) (HIV-2; 03PTHCC19, CCR5 tropic HIV-2 isolate): 14029.58
- IC50 (HIV-2; [9]): 5 nM
- IC90 (HIV-2; [9]): 145 nM
- MPI (maximum percentage of inhibition) (HIV-2; [10]): 99%
- inhibition (HIV-2; HIV-2, concentration of 15.21 μM): about 100%
- IC50 (HIV-2; [11]): 18 nM
- IC90 (HIV-2; [11]): 73 nM
- IC50 (HIV-2; [12]): 23 nM
- IC90 (HIV-2; [12]): 57 nM
- IC50 (HIV-2; [13]): 19 nM
- IC90 (HIV-2; [13]): 95 nM
- IC50 (HIV-2; [14]): 16 nM
- IC90 (HIV-2; [14]): 116 nM
- IC50 (HIV-2; [15]): 12 nM
- IC90 (HIV-2; [15]): 32 nM
- IC50 (HIV-2; [16]): 17 nM
- IC90 (HIV-2; [16]): 51 nM
- IC50 (HIV-2; [17]): 18 nM
- IC90 (HIV-2; [17]): 56 nM
- IC50 (HIV-2; [18]): 8 nM
- IC90 (HIV-2; [18]): 64 nM
- inhibitory activity [1]: no inhibitory activity
- inhibitory activity [2]: no inhibitory activity
- inhibitory activity [3]: no inhibitory activity
- inhibitory activity (Lactobacillus plantarum): no inhibitory activity
- inhibitory activity (Lactobacillus rhamnosus): no inhibitory activity
- inhibitory activity [4]: no inhibitory activity
- inhibitory activity [5]: no inhibitory activity

Structure (SMILES): COC(=O)C1=C[C@@]2(N=N1)C(=O)N1[C@@H](C(=O)O)C(C)(C)S[C@@H]12 [BSS-593, (2,3′R,5R)-5′-(methoxycarbonyl)-3,3-dimethyl-7-oxo-4-thia-1-azaspiro[bicyclo[3.2.0]heptane-6,3′-pyrazole]-2-carboxylic acid]
- anti-HIV activity against HIV-1 (in words) (HIV-1): only active against HIV-1
- MPI (maximum percentage of inhibition) (HIV-1; [19]): 58%
- TI (in vitro therapeutic index, CC50/IC50) (HIV-1; [19]): 4553.31
- IC50 (HIV-1; [19]): 35 nM
- MPI (maximum percentage of inhibition) (HIV-1; [8]): 84%
- TI (in vitro therapeutic index, CC50/IC50) (HIV-1; [8]): 13144.76
- IC50 (HIV-1; [8]): 12 nM
- anti-HIV activity against HIV-2 (in words) (HIV-2): only active against HIV-1
- IC50 (HIV-2; [9]): wa
- IC90 (HIV-2; [9]): wa
- MPI (maximum percentage of inhibition) (HIV-2; [10]): wa
- inhibitory activity [1]: no inhibitory activity
- inhibitory activity [2]: no inhibitory activity
- inhibitory activity [3]: no inhibitory activity
- inhibitory activity (Lactobacillus plantarum): no inhibitory activity
- inhibitory activity (Lactobacillus rhamnosus): no inhibitory activity
- inhibitory activity [4]: no inhibitory activity
- inhibitory activity [5]: no inhibitory activity
